According to patent US12171230B2, “Herbicidal compositions” (Bayer Aktiengesellschaft, priority 2018, dated 2024):

Columns and labels:
Assay type in all cases: in vivo
Phalaris minor [1] = experiment: Post-emergence herbicidal action against Phalaris minor
Viola tricolor [2] = experiment: Post-emergence herbicidal action against Viola tricolor; conditions: 5 g of a.i./ha
Galium aparine = experiment: Post-emergence herbicidal action against Galium aparine
Protocol: (§1) When the observed efficacies exceed the formal sum total of the values of the tests with individual applications, they also exceed the expected value according to Colby, which is calculated using the formula below and is likewise regarded as an indication of synergism (cf. S. R. Colby; in Weeds 15 (1967) p. 20 to 22): E^C=A+B−([…])
(§2) Here: • A=efficacy of the active compound (A) in % at an application rate of a g a.i./ha; • B=efficacy of the active compound (B) in % at an application rate of b g a.i./ha; • E^C=expected value of the effect of the combination (A)+(B) in % at the combined application rate a+b g a.i./ha.
(§3) Seeds or rhizome pieces of mono- and dicotyledonous weeds are placed in sandy loam in pots, covered with soil and grown in a greenhouse under good growth conditions (temperature, air humidity, water supply). Three weeks after sowing, the test plants were treated at the three-leaf stage with the compositions according to the invention. The compositions according to the invention formulated as spray powders or as emulsion concentrates were sprayed onto the green plant parts in various dosages with an application rate of 300 to 800 l/ha of water (equivalent). After the test plants have been left to stand in the greenhouse under optimal growth conditions for about 3 to 4 weeks, the action of the preparations is scored visually in comparison to untreated controls. The compositions according to the invention also have good post-emergence herbicidal activity against a broad spectrum of economically important gramineous and broadleaf weeds.

Lamium purpureum = experiment: Post-emergence herbicidal action against Lamium purpureum
Protocol: as §1, §2, §3

Matricaria inodora = experiment: Post-emergence herbicidal action against Matricaria inodora
Poa annua = experiment: Post-emergence herbicidal action against Poa annua; conditions: for Herbicidal action: 28 DAT
Protocol: as §1, §2, §3

Bromus sterilis [3] = experiment: Post-emergence herbicidal action against Bromus sterilis
Alopecurus myosuroides = experiment: Post-emergence herbicidal action against Alopecurus myosuroides
Lolium rigidum [4] = experiment: Post-emergence herbicidal action against Lolium rigidum
[5] = test system: Lolium rigidum (resistant biotype); experiment: Post-emergence herbicidal action against Lolium rigidum (resistant biotype)
Lolium rigidum [6] = experiment: Post-emergence herbicidal action against Lolium rigidum; conditions: resistant biotype
Viola tricolor [7] = experiment: Post-emergence herbicidal action against Viola tricolor; conditions: 28 DAT
Lolium rigidum [8] = experiment: Post-emergence herbicidal action against Lolium rigidum; conditions: 16 g of a.i./ha
Excerpt: (§4) The following abbreviations are used in the description and the tables that follow: • g of a.i./ha=grams of active substance (active ingredient) (=100% active compound) per hectare; • The sum total of the effects of the individual applications is reported under E^A; • expected values according to Colby are each reported under E^C.
(§5) The rating period is reported in days after application (DAT).

Bromus sterilis [9] = experiment: Post-emergence herbicidal action against Bromus sterilis; conditions: (Z148) post-emergence; for Herbicidal action 14 DAT against Bromus sterilis: g of a.i./ha: 4, 1, 270, 90, 30, 4 + 270, 4 + 90, 4 + 30, 1 + 30
Excerpt: as §4, §5

Phalaris minor [10] = experiment: Post-emergence herbicidal action against Phalaris minor; conditions: 16 g of a.i./ha
Excerpt: as §4, §5

Phalaris minor [11] = experiment: as above; conditions: 28 DAT; 16 g a.i./ha
Bromus sterilis [12] = experiment: Post-emergence herbicidal action against Bromus sterilis; remark: listed apart in the source
Centaurea cyano = experiment: Post-emergence herbicidal action against Centaurea cyano
Protocol: Seeds or rhizome pieces of mono- and dicotyledonous weeds are placed in sandy loam in pots, covered with soil and grown in a greenhouse under good growth conditions (temperature, air humidity, water supply). Three weeks after sowing, the test plants were treated at the three-leaf stage with the compositions according to the invention. The compositions according to the invention formulated as spray powders or as emulsion concentrates were sprayed onto the green plant parts in various dosages with an application rate of 300 to 800 l/ha of water (equivalent).

[13] = test system: Lolium rigidum (resistant biotype); experiment: Post-emergence herbicidal action against Lolium rigidum (resistant biotype); conditions: 16 g of a.i./ha
Excerpt: as §4, §5

Cc1nn(-c2cc(CC(Cl)C(=O)O)c(Cl)cc2F)c(=O)n1C(F)F (stereo not drawn) [(B4.8) Carfentrazone]
Herbicidal action in [%] 14 DAT against Phalaris minor (Phalaris minor [1]; 15 g of a.i./ha): 15%
Herbicidal action in [%] 28 DAT against Phalaris minor (Phalaris minor [1]; 15 g of a.i./ha): 0%
Herbicidal action in [%] 14 DAT against Phalaris minor (Phalaris minor [1]; 45 g of a.i./ha): 20%
Herbicidal action in [%] 28 DAT against Phalaris minor (Phalaris minor [1]; 45 g of a.i./ha): 10%
Herbicidal action in [%] 28 DAT against Viola tricolor (Viola tricolor [2]): 80%
Herbicidal action in [%] 28 DAT against Galium aparine (Galium aparine; 5 g of a.i./ha): 70%
Herbicidal action in [%] 28 DAT against Galium aparine (Galium aparine; 15 g of a.i./ha): 80%
Herbicidal action in [%] 28 DAT against Lamium purpureum L. (Lamium purpureum; 45 g of a.i./ha): 80%
Herbicidal action in [%] 14 DAT against Matricaria inodora (Matricaria inodora; 5 g of a.i./ha): 25%
Herbicidal action in [%] 14 DAT against Poa annua L. (Poa annua; 5 g of a.i./ha): 0%
Herbicidal action in [%] 14 DAT against Poa annua L. (Poa annua; 15 g of a.i./ha): 0%
Herbicidal action in [%] 28 DAT against Poa annua L. (Poa annua; 15 g of a.i./ha): 0%
Herbicidal action in [%] 14 DAT against Poa annua L. (Poa annua; 45 g of a.i./ha): 10%
Herbicidal action in [%] 28 DAT against Poa annua L. (Poa annua; 45 g of a.i./ha): 20%
Herbicidal action in [%] 14 DAT against Bromus sterilis (Bromus sterilis [3]; 15 g of a.i./ha): 20%
Herbicidal action in [%] 28 DAT against Bromus sterilis (Bromus sterilis [3]; 15 g of a.i./ha): 15%
Herbicidal action in [%] 14 DAT against Bromus sterilis (Bromus sterilis [3]; 45 g of a.i./ha): 30%
Herbicidal action in [%] 28 DAT against Bromus sterilis (Bromus sterilis [3]; 45 g of a.i./ha): 35%
Herbicidal action in [%] 14 DAT against Alopecurus myosuroides (Alopecurus myosuroides; 5 g of a.i./ha): 0%
Herbicidal action in [%] 14 DAT against Alopecurus myosuroides (Alopecurus myosuroides; 15 g of a.i./ha): 0%
Herbicidal action in [%] 28 DAT against Alopecurus myosuroides (Alopecurus myosuroides; 15 g of a.i./ha): 0%
Herbicidal action in [%] 14 DAT against Alopecurus myosuroides (Alopecurus myosuroides; 15 g of a.i./ha, second 14 DAT block): 15%
Herbicidal action in [%] 14 DAT against Alopecurus myosuroides (Alopecurus myosuroides; 45 g of a.i./ha): 25%
Herbicidal action in [%] 28 DAT against Alopecurus myosuroides (Alopecurus myosuroides; 45 g of a.i./ha): 20%
Herbicidal action in [%] 14 DAT against Alopecurus myosuroides (Alopecurus myosuroides; 45 g of a.i./ha, second 14 DAT block): 35%
Herbicidal action in [%] 28 DAT against Lolium rigidum (Lolium rigidum [4]; 15 g of a.i./ha): 0%
Herbicidal action in [%] 28 DAT against Lolium rigidum (Lolium rigidum [4]; 45 g of a.i./ha): 20%
Herbicidal action in [%] 14 DAT against Lolium rigidum (resistant biotype) ([5]; 15 g of a.i./ha): 10%
Herbicidal action in [%] 28 DAT against Lolium rigidum (resistant biotype) ([5]; 15 g of a.i./ha): 0%
Herbicidal action in [%] 14 DAT against Lolium rigidum (resistant biotype) ([5]; 45 g of a.i./ha): 25%
Herbicidal action in [%] 28 DAT against Lolium rigidum (resistant biotype) ([5]; 45 g of a.i./ha): 20%

COC(=O)C1=C[C@@H](NC(=O)[C@@]2(C)CC(c3cc(F)cc(F)c3)=NO2)CO1 [Compound A6, methyl (3R)-3-[[(5R)-3-(3,5-difluorophenyl)-5-methyl-4H-isoxazole-5-carbonyl]amino]-2,3-dihydrofuran-5-carboxylate]
Herbicidal action (Lolium rigidum [6]; 14 DAT, 1 g a.i./ha): 50%
Herbicidal action (Lolium rigidum [6]; 28 DAT, 16 g a.i./ha): 70%
Herbicidal action (Viola tricolor [7]; 4 g a.i./ha): 50%
Herbicidal action (Viola tricolor [7]; 16 g a.i./ha): 60%
Herbicidal action 28 DAT against Galium aparine (Galium aparine; 1 g of a.i./ha): 60%
Herbicidal action 28 DAT against Lolium rigidum (Lolium rigidum [8]): 90%
Herbicidal action 28 DAT against Bromus sterilis (Bromus sterilis [9]; g of a.i./ha: 1, 270, 90, 30, 1 + 270, 1 + 90, 1 + 30): 50%
Herbicidal action 14 DAT against Bromus sterilis (Bromus sterilis [9]; 1 g of a.i./ha): 75%
Herbicidal action 14 DAT against Bromus sterilis (Bromus sterilis [9]; 4 g of a.i./ha): 80%
Herbicidal action 28 DAT against Lamium purpureum L. (Lamium purpureum; 1 g of a.i./ha): 75%
Herbicidal action 14 DAT against Lamium purpureum L. (Lamium purpureum; 4 g of a.i./ha): 85%
Herbicidal action 28 DAT against Phalaris minor (Phalaris minor [10]): 90%
Herbicidal action (Matricaria inodora; 14 DAT, 1 g a.i./ha): 40%
Herbicidal action 14 DAT against Matricaria inodora (Matricaria inodora; 16 g of a.i./ha): 70%
Herbicidal action 28 DAT against Poa annua L. (Poa annua; 16 g of a.i./ha): 70%
Herbicidal action (Poa annua; 1 g a.i./ha): 50%
Herbicidal action (Poa annua; 16 g a.i./ha): 70%
Herbicidal action (Phalaris minor [11]): 90%
Herbicidal action (Bromus sterilis [12]; 14 DAT, 4 g a.i./ha): 80%
Herbicidal action (Bromus sterilis [12]; 14 DAT, 16 g a.i./ha): 85%
Herbicidal action (Bromus sterilis [12]; 28 DAT, 1 g a.i./ha): 50%
Herbicidal action (Centaurea cyano; 14 DAT, 1 g a.i./ha): 40%
Herbicidal action (Centaurea cyano; 14 DAT, 4 g a.i./ha): 85%
Herbicidal action (Centaurea cyano; 28 DAT, 1 g a.i./ha): 40%
Herbicidal action (Centaurea cyano; 28 DAT, 4 g a.i./ha): 70%
Herbicidal action 28 DAT against Lolium rigidum (resistant biotype) [13]: 70%
